From patent US8809280B2, “Therapeutic peptides” (Lytix Biopharma AS, priority 2009, dated 2014)
Converted amounts (≈) assume the structure as drawn. Like-named read-outs stand apart in the source and are kept apart here.

How the values were obtained:
[1] = tested on: Staphylococcus aureus (ATTC 25923); assay: microbe, parasite or virus in culture; format: cell-based; conditions: for MIC: read-out: MIC S. aureus
Method in brief: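 Di-TFA salts tested in duplicate at 0.5–200 μg/ml against exponential-phase bacteria at 2×10^6 cfu/ml grown in 2% peptone water. Growth judged by well turbidity, with no-peptide and gentamicin controls.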

[2] = tested on: methicillin resistant Staphylococcus aureus (ATCC 33591); assay: microbe, parasite or virus in culture; format: cell-based; conditions: for MIC: read-out: MIC MTRSA
Method in brief: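 Di-TFA salts tested in duplicate at 200 down to 0.5 μg/ml against exponentially grown bacteria at 2×10^6 cfu/ml. Growth judged by well turbidity, with no-peptide and gentamicin controls.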

[3] = tested on: methicillin resistant Staphylococcus epidermidis (ATCC 27626); assay: microbe, parasite or virus in culture; format: cell-based; conditions: for MIC: read-out: MIC MRSE
Method in brief: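 Exponentially grown bacteria (2% peptone water) at 2×10^6 cfu/ml exposed in duplicate to di-TFA salts at 0.5–200 μg/ml. Growth or no growth judged by well turbidity; no-peptide and gentamicin controls included.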

[4] = tested on: Escherichia coli (ATTC 25922); assay: microbe, parasite or virus in culture; format: cell-based; conditions: for MIC: read-out: MIC E. coli
Method in brief: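 Broth dilution in 2% Bacto Peptone water, inoculum 2×10^6 cfu/ml of exponential-phase bacteria; compounds (di-TFA salts) tested in duplicate at 200 down to 0.5 μg/ml. Growth judged by well turbidity, with no-peptide negative and gentamicin positive controls.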

human red blood cells = assay: cells; format: cell-based
Method in brief: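 Washed heparinized RBCs, diluted to 10% hematocrit then to 1% v/v final, incubated with compounds in PBS (1–1000 μg/mL) for 1 h at 37 °C with agitation. Hemoglobin release read at 405 nm against PBS (0%) and 0.1% Triton X-100 (100%); value reported is concentration giving 50% hemolysis.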

α-chymotrypsin = α-chymotrypsin (Bos taurus, UniProt P00766, DEL14-15/DEL147-148); assay: Stability against α-chymotrypsin; format: in vitro ADME; conditions: over a period of 48 hours
Description: The stability testing against α-chymotrypsin was conducted by dissolving the desired compounds to 1 mg/ml in water. α-Chymotrypsin was dissolved to 0.1 mg/ml in 1 mM HCl containing 2 mM CaCl2. The enzymatic digestion was performed in 100 mM TRIS HCl containing 10 mM CaCl2. Final enzyme concentration was 2 μg/ml, and final peptide concentration was 100 μg/ml. Total volume was 0.5 ml.
15 μl samples were collected at 0, 15, 30, 60, 120 and 240 min in addition to the 24 and 48 hours samples. To the samples it was added an external standard (atenolol hydrochloride) and 100 μl 10% acetic acid to terminate digestion before it was diluted to 1 ml with water.
For every test there were done a negative control without enzyme to ensure that degradation was due to enzyme activity and not other factors. Succinyl-ala-ala-pro-phe-para nitroanhiine was used as positive control. All test were run in triplicates.

[5] = Phospholipid vesicle based barrier model permeability; format: in vitro ADME
Description: Encouraged by the theoretical calculations, the permeability of the β^2,2-amino acid derivatives was further investigated using a recently established phospholipid vesicle based barrier model (Flaten et al. Eur. J. Pharm. Sci. [2006] 27, 80-90).

[6] = tested on: Pseudomonas aeruginosa (ATCC 27853); assay: microbe, parasite or virus in culture; format: cell-based; conditions: for MIC: Pseudomonas aeruginosa, ATCC27853, Example 4, ATCC 27853, di-trifluoroacetate salts, highest concentration tested 200 μg/ml, read-out: MIC P. aeruginosa; for Therapeutic index P. aeruginosa: EC50 RBC divided by MIC
Description: Each compound was tested in duplicates at 200, 100, 50, 35, 15, 10, 5, 2.5, 1, 0.5 μg/ml. All tested compounds were di-trifluoroacetic acid salts.

[7] = Staphylococcus aureus, ATCC25923, Example 4, ATCC 25923, di-trifluoroacetate salts, highest concentration tested 200 μg/ml
[8] = Staphylococcus aureus, ATCC33591, Example 4, ATCC 33591, di-trifluoroacetate salts, highest concentration tested 200 μg/ml
[9] = Staphylococcus epidermidis, ATCC 27626 / MRSE, Example 4, ATCC 27626, di-trifluoroacetate salts, highest concentration tested 200 μg/ml
[10] = Escherichia coli, ATCC25922, Example 4, ATCC 25922, di-trifluoroacetate salts, highest concentration tested 200 μg/ml
[11] = Erythrocyte, Example 4, hemolytic activity, human red blood cells, highest concentration tested 1000 μg/ml, read-out: EC50 RBC
[12] = phospholipid vesicle based barrier model

CN(C)CCN1CCN(C(=O)C(CN)(Cc2ccc3ccccc3c2)Cc2ccc3ccccc3c2)CC1 [Compound 4c]
MBC S. aureus ([1]; ATTC 25923): 7.2 µM (≈ 3.66 µg/mL) | Therapeutic index S. aureus ([1]; ATTC 25923): 20 | MBC MRSA ([2]; ATCC 33591): 7.2 µM (≈ 3.66 µg/mL) | MIC MRSA ([2]; ATCC 33591): 7.2 µM (≈ 3.66 µg/mL) | Therapeutic index MRSA ([2]; ATCC 33591): 120 | MIC ([2]; ATCC 33591): 3.4 µM (≈ 1.73 µg/mL) | MBC MRSE ([3]; ATCC 27626): 7.2 µM (≈ 3.66 µg/mL) | Therapeutic index MRSE ([3]; ATCC 27626): 29 | MBC E. coli ([4]; ATTC 25922): 289 µM (≈ 147 µg/mL) | Therapeutic index E. coli ([4]; ATTC 25922): 8.5 | EC50 RBC (human red blood cells; Example 1, 50% hemolysis of human red blood cells, highest concentration tested 1000 μg/ml): — (The notation “—”denotes no detectable activity (MIC or EC50) within the concentration range tested.) | EC50 (human red blood cells; red cells of human): 409 µM | proteolytic stability against α-chymotrypsin (α-chymotrypsin): no degradation could be detected | permeability, model's classification of absorption ([5]; not told): moderately absorbed in humans

N=C(N)NCCC[C@H](NC(=O)C(CN)(Cc1ccc2ccccc2c1)Cc1ccc2ccccc2c1)C(N)=O [Compound 4g]
MBC S. aureus ([1]; ATTC 25923): 6.6 µM (≈ 3.46 µg/mL) | MIC ([1]; ATTC 25923): 6.6 µM (≈ 3.46 µg/mL) | MBC MRSA ([2]; ATCC 33591): 5.3 µM (≈ 2.78 µg/mL) | MIC MRSA ([2]; ATCC 33591): 5.0 µM (≈ 2.62 µg/mL) | MBC MRSE ([3]; ATCC 27626): 6.6 µM (≈ 3.46 µg/mL) | MIC ([3]; ATCC 27626): 6.6 µM (≈ 3.46 µg/mL) | MBC E. coli ([4]; ATTC 25922): 266 µM (≈ 140 µg/mL) | MIC ([4]; ATTC 25922): 266 µM (≈ 140 µg/mL) | EC50 (human red blood cells; red cells of human): 470 µM | proteolytic stability against α-chymotrypsin (α-chymotrypsin): no degradation could be detected

Cc1ccc(CC(CN)(Cc2ccc(C)cc2)C(=O)N[C@@H](CCCNC(=N)N)C(N)=O)cc1 [Compound 4h]
MBC S. aureus ([1]; ATTC 25923): 147 µM (≈ 66.5 µg/mL) | MIC ([1]; ATTC 25923): 147 µM (≈ 66.5 µg/mL) | MBC MRSA ([2]; ATCC 33591): 110 µM (≈ 49.8 µg/mL) | MIC MRSA ([2]; ATCC 33591): 74 µM (≈ 33.5 µg/mL) | MBC MRSE ([3]; ATCC 27626): 110 µM (≈ 49.8 µg/mL) | MIC ([3]; ATCC 27626): 74 µM (≈ 33.5 µg/mL) | MBC E. coli ([4]; ATTC 25922): >294 µM | proteolytic stability against α-chymotrypsin (α-chymotrypsin): no degradation could be detected

N=C(N)NCCC[C@H](NC(=O)C(CN)(Cc1ccc(C(F)(F)F)cc1)Cc1ccc(C(F)(F)F)cc1)C(N)=O [Compound 4i]
MBC S. aureus ([1]; ATTC 25923): 12.7 µM (≈ 7.12 µg/mL) | MIC ([1]; ATTC 25923): 12.7 µM (≈ 7.12 µg/mL) | MBC MRSA ([2]; ATCC 33591): 6.3 µM (≈ 3.53 µg/mL) | MIC MRSA ([2]; ATCC 33591): 3.2 µM (≈ 1.79 µg/mL) | MBC MRSE ([3]; ATCC 27626): 12.7 µM (≈ 7.12 µg/mL) | MIC ([3]; ATCC 27626): 12.7 µM (≈ 7.12 µg/mL) | MBC E. coli ([4]; ATTC 25922): >254 µM | MIC ([4]; ATTC 25922): 254 µM (≈ 142 µg/mL) | proteolytic stability against α-chymotrypsin (α-chymotrypsin): no degradation could be detected

CC(C)(C)c1ccc(CC(CN)(Cc2ccc(C(C)(C)C)cc2)C(=O)N[C@@H](CCCNC(=N)N)C(N)=O)cc1 [Compound 4k]
MBC S. aureus ([1]; ATTC 25923): 6.5 µM (≈ 3.49 µg/mL) | MIC ([1]; ATTC 25923): 6.5 µM (≈ 3.49 µg/mL) | MBC MRSA ([2]; ATCC 33591): 6.5 µM (≈ 3.49 µg/mL) | MIC MRSA ([2]; ATCC 33591): 3.3 µM (≈ 1.77 µg/mL) | MBC MRSE ([3]; ATCC 27626): 5.2 µM (≈ 2.79 µg/mL) | MIC ([3]; ATCC 27626): 5.0 µM (≈ 2.68 µg/mL) | MBC E. coli ([4]; ATTC 25922): 46 µM (≈ 24.7 µg/mL) | MIC ([4]; ATTC 25922): 46 µM (≈ 24.7 µg/mL) | proteolytic stability against α-chymotrypsin (α-chymotrypsin): no degradation could be detected

COc1cc(CC(CN)(Cc2cc(OC)cc(OC)c2)C(=O)N[C@@H](CCCNC(=N)N)C(N)=O)cc(OC)c1 [Compound 4m]
MBC S. aureus ([1]; ATTC 25923): >259 µM | MIC ([1]; ATTC 25923): 259 µM (≈ 141 µg/mL) | MBC MRSA ([2]; ATCC 33591): 259 µM (≈ 141 µg/mL) | MIC MRSA ([2]; ATCC 33591): 259 µM (≈ 141 µg/mL) | MBC MRSE ([3]; ATCC 27626): 129 µM (≈ 70.3 µg/mL) | MIC ([3]; ATCC 27626): 129 µM (≈ 70.3 µg/mL) | MBC E. coli ([4]; ATTC 25922): >259 µM | proteolytic stability against α-chymotrypsin (α-chymotrypsin): no degradation could be detected

CN1CCN(C(=O)C(CN)(Cc2ccc3ccccc3c2)Cc2ccc3ccccc3c2)CC1 [Entry 5c]
Therapeutic index S. aureus ([1]; EC50 RBC divided by MIC): 20 | MIC [1, 7]: 15 µM | Therapeutic index MRSA ([2]; EC50 RBC divided by MIC): 41 | MIC [2, 8]: 7.4 µM | Therapeutic index MRSE ([3]; EC50 RBC divided by MIC): 20 | MIC [3, 9]: 15 µM | Therapeutic index E. coli ([4]; EC50 RBC divided by MIC): 14 | MIC [4, 10]: 22 µM | MIC [6]: > 200 µg/mL | EC50 (human red blood cells; [11]): 303 µM | experimental permeability values, rank ([5]; among 4c, 5c, 6c and 7c): highest permeability | permeability, model's classification of absorption [5, 12]: moderately absorbed in humans

CN(C)CCNC(=O)C(CN)(Cc1ccc2ccccc2c1)Cc1ccc2ccccc2c1 [Entry 6c]
Therapeutic index S. aureus ([1]; EC50 RBC divided by MIC): 16 | MIC [1, 7]: 7.5 µM | Therapeutic index MRSA ([2]; EC50 RBC divided by MIC): 16 | MIC [2, 8]: 7.5 µM | Therapeutic index MRSE ([3]; EC50 RBC divided by MIC): 16 | MIC [3, 9]: 7.5 µM | Therapeutic index E. coli ([4]; EC50 RBC divided by MIC): 5.1 | MIC [4, 10]: 23 µM | Therapeutic index P. aeruginosa [6]: 0.4 | MIC [6]: 300 µM | EC50 (human red blood cells; [11]): 117 µM | permeability, model's classification of absorption [5, 12]: moderately absorbed in humans

NCCNC(=O)C(CN)(Cc1ccc2ccccc2c1)Cc1ccc2ccccc2c1 [Entry 7c]
Therapeutic index S. aureus ([1]; EC50 RBC divided by MIC): 117 | MIC [1, 7]: 3.9 µM | Therapeutic index MRSA ([2]; EC50 RBC divided by MIC): 59 | MIC [2, 8]: 7.8 µM | Therapeutic index MRSE ([3]; EC50 RBC divided by MIC): 117 | MIC [3, 9]: 3.9 µM | Therapeutic index E. coli ([4]; EC50 RBC divided by MIC): 19 | MIC [4, 10]: 24 µM | Therapeutic index P. aeruginosa [6]: 8.3 | MIC [6]: 55 µM | EC50 (human red blood cells; [11]): 457 µM | permeability, model's classification of absorption [5, 12]: moderately absorbed in humans
